Drawing on US10278942B2 (PELOTON THERAPEUTICS, INC., priority 2015, dated 2019), this text covers IC50 and EC50 for 28 compounds.

Each structure is given as a SMILES string. Where two headings read alike, the source gives them in different places.

The target in assay [1] is T1, HIF-2α HIS TAG-PASB Domain (Homo sapiens, UniProt Q99814).
T1 construct: 100 nM HIF-2α HIS TAG-PASB Domain
The assay can be described thus: HIF-2α Scintillation Proximity Assay (SPA). In kind it is binding. An outline of the steps: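 IC50 values rest on percent inhibition, where the sample signal is scaled between high and low controls. Wells contain about 100 μL: compound dispensed as 2 μL of DMSO solution, 88 μL protein-probe mix and 10 μL of beads.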

The next assay relates to 786-O-Hif-Luc cells. Nature of the assay: Luciferase Assay (HIF responsive elements reporter).
Setting [2] is: read-out: Scintillation Proximity Assay IC50.
Setting [3] is: read-out: Mean Luciferase EC50 (nM), 786-O-Hif-Luc cells.

T1 sequence (Q99814 240-350 limits assumed): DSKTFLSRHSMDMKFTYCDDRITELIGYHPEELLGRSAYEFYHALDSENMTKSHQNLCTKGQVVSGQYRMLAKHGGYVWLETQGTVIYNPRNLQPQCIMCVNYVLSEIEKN
Procedure for 786-O-Hif-Luc cells: A pool of infected cells were then selected against 2 μg/mL of puromycin (P8833, Sigma) for 10 days followed by limited dilution to select single clones. […] Each concentration was tested in triplicate. After about 24 hours, luciferase activity was determined using ONE-Glo Luciferase Assay Reagent (E6110, Promega) following the manufacturer's recommended procedure. EC50 were calculated using Dotmatics software.

One may read the IC50 as the concentration that gives 50% inhibition. What is called EC50 is the concentration needed to bring the measured effect to its halfway point. With `CCC(COC)Oc1ccc(S(=O)(=O)C(F)(F)F)c2c1CC(F)(F)C2O` (centres unmarked) [Compound 747], in assay [1] (setting [2]), the IC50 lay in the range of 50 to 249 nM. Further, the EC50 in the assay on 786-O-Hif-Luc cells (setting [3]) lay within 250 to 1000 nM.

In assay [1] (Scintillation Proximity Assay IC50 (nM)), `O=S1(=O)c2ccc(Oc3cc(F)cc(Cl)c3)c(Br)c2[C@H](O)C1(F)F` [Compound 405] came in with an IC50 of 50 to 249 nM. In the assay on 786-O-Hif-Luc cells (read-out: Mean Luciferase EC50 (nM)), the EC50 is 50 to 249 nM.

Take `Cc1c(S(C)(=O)=O)ccc(Oc2cc(F)cc(F)c2)c1C#N` [Compound 52]: in assay [1] (setting [2]), the IC50 was below 50 nM. In the assay with 786-O-Hif-Luc cells (setting [3]), the EC50 lay within 250 to 1000 nM.

`O=S(=O)(c1ccc(Oc2ccc(F)c(Cl)c2)c2c1[C@H](O)C(F)(F)C2)C(F)F` [Compound 26]: the IC50 in assay [1] (setting [2]) was below 50 nM. Moreover, the EC50 in the assay with 786-O-Hif-Luc cells (setting [3]) is 50 to 249 nM.

Consider `Cc1cc(S(=O)(=O)C(F)F)ccc1Oc1cc(F)cc(C#N)c1` [Compound 136], for which, in assay [1] (setting [2]), the IC50 was in the range of 50 to 249 nM. Besides, the EC50 in the assay with 786-O-Hif-Luc cells (setting [3]) was above 1000 nM.

On to `O=S1(=O)CC(O)c2c1ccc(Oc1cc(F)cc(F)c1)c2C(F)F` (centres unmarked) [Compound 370], for which the IC50 in assay [1] (setting [2]) fell in the range of 50 to 249 nM. Further, in the assay with 786-O-Hif-Luc cells (setting [3]), the EC50 is 250 to 1000 nM.

Regarding `N#Cc1c(Oc2cccc(F)c2)ccc2c1[C@@H](O)CS2(=O)=O` [Compound 422], in assay [1] (setting [2]), the IC50 lay in the range of 250 to 1000 nM. Moreover, the EC50 with 786-O-Hif-Luc cells (setting [3]) was 250 to 1000 nM.

As for `CS(=O)(=O)c1ccc(Oc2cncc(Cl)c2)c2c1[C@H](O)C(F)(F)C2` [Compound 115], the IC50 in assay [1] (setting [2]) was in the range of 250 to 1000 nM. Moreover, in the assay on 786-O-Hif-Luc cells (setting [3]), the EC50 was in the range of 250 to 1000 nM.

Turning to `N#Cc1cc(F)cc(Oc2ccc(S(=O)(=O)C(F)F)c(C#N)c2Cl)c1` [Compound 39], in assay [1] (setting [2]), the IC50 is 50 to 249 nM. For the same compound, the EC50 in the assay with 786-O-Hif-Luc cells (setting [3]) fell in the range of 250 to 1000 nM.

On to `N#Cc1c(Oc2cc(F)cc(Cl)c2)ccc(S(=O)(=O)C(F)F)c1CO` [Compound 35], for which, in assay [1] (setting [2]), the IC50 is above 1000 nM. Also, in the assay on 786-O-Hif-Luc cells (setting [3]), the EC50 is above 1000 nM.

Consider `COC(=O)/C=C/c1c(S(=O)(=O)C(F)(F)F)ccc(Oc2cc(F)cc(C#N)c2)c1C` [Compound 147], for which the IC50 in assay [1] (setting [2]) fell in the range of 50 to 249 nM. The EC50 with 786-O-Hif-Luc cells (setting [3]) is above 1000 nM.

Regarding `O=S(=O)(c1ccc(Nc2cc(F)cc(F)c2)c2c1[C@H](O)CC2)C(F)(F)F` [Compound 531], the IC50 in assay [1] (setting [2]) lay in the range of 250 to 1000 nM. In addition, the EC50 in the assay with 786-O-Hif-Luc cells (setting [3]) lay in the range of 250 to 1000 nM.

Take `N#Cc1cc(F)cc(Oc2ccc(S(=O)(=O)CCO)c3c2CC(F)(F)C3O)c1` (centres unmarked) [Compound 250]: the IC50 in assay [1] (setting [2]) was above 1000 nM. The EC50 in the assay on 786-O-Hif-Luc cells (setting [3]) is above 1000 nM.

Consider `N#Cc1cccc(Oc2ccc3c(c2C(F)F)[C@@H](O)C(F)(F)S3(=O)=O)c1` [Compound 435], for which the IC50 in assay [1] (setting [2]) was below 50 nM. The EC50 with 786-O-Hif-Luc cells (setting [3]) was below 50 nM.

In the case of `CS(=O)(=O)c1ccc(O[C@H]2C[C@H](F)C2)c2c1[C@H](O)C(F)(F)[C@H]2F` [Compound 737], in assay [1] (setting [2]), the IC50 lay in the range of 50 to 249 nM. For the same compound, in the assay on 786-O-Hif-Luc cells (setting [3]), the EC50 was above 1000 nM.

For `N#CN=S1(=O)CC(O)c2c1ccc(Oc1cc(F)cc(F)c1)c2C(F)F` (centres unmarked) [Compound 394], the IC50 in assay [1] (setting [2]) was above 1000 nM. In addition, the EC50 in the assay on 786-O-Hif-Luc cells (setting [3]) is above 1000 nM.

On to `N#CC1(COc2ccc(S(=O)(=O)C(F)(F)F)c3c2CCC3O)CC1` (centres unmarked) [Compound 619], for which the IC50 in assay [1] (setting [2]) was above 1000 nM. Moreover, the EC50 in the assay on 786-O-Hif-Luc cells (setting [3]) was above 1000 nM.

For `CS(=O)(=O)c1ccc(OCC2CC2(F)F)c2c1[C@H](O)C(F)(F)[C@@H]2F` (some centres unmarked) [Compound 756], in assay [1] (setting [2]), the IC50 was below 50 nM. Also, the EC50 in the assay with 786-O-Hif-Luc cells (setting [3]) lay within 250 to 1000 nM.

As for `O=S(=O)(c1ccc(Oc2ccc(F)c(Cl)c2)c2c1[C@H](O)C(F)(F)C2)C(F)(F)F` [Compound 221], in assay [1] (setting [2]), the IC50 is below 50 nM. Moreover, the EC50 with 786-O-Hif-Luc cells (setting [3]) is below 50 nM.

In the case of `O=S1(=O)CCC(Oc2ccc(S(=O)(=O)C(F)(F)F)c3c2CC(F)(F)[C@H]3O)CC1` [Compound 721], the IC50 in assay [1] (setting [2]) was above 1000 nM. For the same compound, in the assay with 786-O-Hif-Luc cells (setting [3]), the EC50 was above 1000 nM.

Take `O=S(=O)(c1ccc(Oc2cncc(Cl)c2)c2c1[C@H](O)CC2)C(F)F` [Compound 3]: the IC50 in assay [1] (setting [2]) lay within 250 to 1000 nM. Besides, the EC50 in the assay with 786-O-Hif-Luc cells (setting [3]) was 250 to 1000 nM.

Regarding `O=S(=O)(c1ccc([C@H]2CCC[C@@H](O)C2)c2c1[C@H](O)C(F)(F)C2)C(F)(F)F` [Compound 483], in assay [1] (setting [2]), the IC50 was below 50 nM. In the assay on 786-O-Hif-Luc cells (setting [3]), the EC50 fell in the range of 250 to 1000 nM.

As to `Cc1c(Oc2cc(F)cc(Cl)c2)ccc(S(=O)(=O)C(F)(F)F)c1Br` [Compound 140], the IC50 in assay [1] (setting [2]) was below 50 nM. In addition, in the assay with 786-O-Hif-Luc cells (setting [3]), the EC50 is above 1000 nM.

For `O=S(=O)(c1ccc(OCC2CCC2)c2c1[C@H](O)C(F)(F)C2)C(F)(F)F` [Compound 716], the IC50 in assay [1] (setting [2]) is below 50 nM. Further, the EC50 with 786-O-Hif-Luc cells (setting [3]) is below 50 nM.

`CS(=O)(=O)c1ccc(Oc2cc(F)cc(C#N)c2)c2c1[C@H](O)C(F)(F)[C@H]2F` [Compound 293]: the half-maximal inhibitory concentration (IC50) in assay [1] (setting [2]) is 250 to 1000 nM. Moreover, the EC50 in the assay with 786-O-Hif-Luc cells (setting [3]) lay within 250 to 1000 nM.

For the compound `CC(C)(COc1ccc(S(=O)(=O)C(F)(F)F)c2c1CC(F)(F)[C@H]2O)S(C)(=O)=O` [Compound 723], the IC50 in assay [1] (setting [2]) was above 1000 nM. For the same compound, the EC50 with 786-O-Hif-Luc cells (setting [3]) was above 1000 nM.

As to `O=S(=O)(c1ccc(OC2CCOCC2)c2c1C(O)C(F)(F)C2)C(F)F` (centres unmarked) [Compound 782], the IC50 in assay [1] (setting [2]) fell in the range of 50 to 249 nM. In the assay on 786-O-Hif-Luc cells (setting [3]), the EC50 lay in the range of 50 to 249 nM.

As for `CCOc1ccc(S(=O)(=O)C(F)F)c2c1CC(F)(F)[C@H]2O` [Compound 678], the IC50 in assay [1] (setting [2]) lay in the range of 250 to 1000 nM. The EC50 in the assay with 786-O-Hif-Luc cells (setting [3]) is 250 to 1000 nM.
